Literature values, collected in patent US20180027805A1, “ACID HERBICIDE-CONTAINING COMPOSITIONS, PRECURSORS, DERIVATIVES, AND METHODS” (priority 2015, published 2018).

Compound | pKa
O=C(O)CCCOc1ccc(Cl)cc1Cl [2,4-DB] | 4.8
O=C(O)c1cc(Oc2ccc(C(F)(F)F)cc2Cl)ccc1[N+](=O)[O-] [Acifluorfen] | 3.86
N#Cc1cc(Br)c(O)c(Br)c1 [Bromoxynil] | 4.06
COc1c(Cl)ccc(Cl)c1C(=O)O [Dicamba, 3,6-dichloro-O-anisic acid] | 1.87
CC(Oc1ccc(Oc2ccc(Cl)cc2Cl)cc1)C(=O)O (centres unmarked) [Diclofop] | 3.57
C[C@@H](Oc1ccc(Oc2ccc(C(F)(F)F)cn2)cc1)C(=O)O [Fluazifop-p] | 2.98
CC(Oc1ccc(Oc2ncc(C(F)(F)F)cc2Cl)cc1)C(=O)O (centres unmarked) [Haloxyfop] | 4.33
CC(C)C1(C)N=C(c2nc3ccccc3cc2C(=O)O)NC1=O (centres unmarked) [Imazaquin] | 3.8
Nc1c(Cl)c(Cl)nc(C(=O)O)c1Cl [Picloram] | 2.3
O=C(O)COc1nc(Cl)c(Cl)cc1Cl [Triclopyr, 3,5,6-trichloro-2-pyridyloxyacetic acid] | 2.68
Imazamethbenz | 2.9
